Assay results: US11000033B2, “Ketone or oxime compound, and herbicide” (NISSAN CHEMICAL CORPORATION, priority 2014, dated 2021)

What was measured:
Format in all cases: in vivo
[1] = system: Veronica persica; assay: Test Example 4: herbicidal effect by soil treatment (symbol R); settings: 320 g/ha
Outline: (§1)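 Seeds were sown in sterilized diluvial soil, covered with about 1.5 cm of soil, and the soil surface was sprayed with a water-diluted emulsion of the compound at a predetermined rate. Plants grew in a greenhouse at 25° C. to 30° C.; effects were scored visually 3 weeks after application.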

[2] = system: wheat; assay: Test Example 4: effect on crop by soil treatment (symbol e); settings: 320 g/ha
Outline: (§2)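 Grown at 25° C. to 30° C. in a greenhouse, the crops came from seed sown spot-wise in sterilized diluvial soil under roughly 1.5 cm of covering soil.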

[3] = system: rice; assay: Test Example 4: effect on crop by soil treatment (symbol b); settings: 320 g/ha
Outline: as §2

[4] = system: Avena fatua; assay: Test Example 4: herbicidal effect by soil treatment (symbol I); settings: 320 g/ha
Outline: as §1

[5] = system: Stellaria media; assay: Test Example 4: herbicidal effect by soil treatment (symbol P); settings: 320 g/ha
Outline: as §1

[6] = system: Apera spica-venti; assay: Test Example 4: herbicidal effect by soil treatment (symbol L); settings: 320 g/ha
Outline: as §1

[7] = system: Abutilon theophrasti; assay: Test Example 4: herbicidal effect by soil treatment (symbol M); settings: 320 g/ha
Outline: as §1

[8] = system: Chenopodium album; assay: Test Example 5: herbicidal effect by foliage application, plastic box (symbol O); settings: 320 g/ha, 3 weeks after application
Outline: (§3)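 After sowing into sterilized diluvial soil and growing two weeks under glass at 25° C. to 30° C., seedlings receive a uniform foliar spray of diluted emulsion. Damage is judged visually three weeks on.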

[9] = system: soybean; assay: Test Example 4: effect on crop by soil treatment (symbol d); settings: 320 g/ha
Outline: as §2

[10] = system: Alopecurus myosuroides; assay: Test Example 4: herbicidal effect by soil treatment (symbol J); settings: 320 g/ha
Outline: as §1

[11] = system: Digitaria ciliaris; assay: Test Example 5: herbicidal effect by foliage application, plastic box (symbol F); settings: 320 g/ha, 3 weeks after application
Outline: as §3

[12] = system: Scirpus juncoides; assay: Test Example 1: herbicidal activity, application before weed generation in submerged conditions (symbol B); settings: application herbicide amount 320 g/ha
Outline: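 Compound emulsion was diluted to a set herbicide amount and applied to the water surface on the sowing day, into submerged (4 cm) alluvial-soil pots sown with mixed weed seeds and transplanted 2.5-leaf rice. Pots were held in a 25–30 °C greenhouse, and weeds were scored 0–5 by herbicidal ratio after 3 weeks.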

[13] = system: Alopecurus myosuroides; assay: Test Example 5: herbicidal effect by foliage application, plastic box (symbol J); settings: 320 g/ha, 3 weeks after application
Outline: as §3

[14] = system: Monochoria vaginalis; assay: Test Example 2: herbicidal activity, application during weed generation in submerged conditions (symbol C); settings: Table 23; application herbicide amount 320 g/ha; grade 0-5 by criteria of Test Example 1
Outline: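 Submerged alluvial soil (4 cm) sown with mixed seed; greenhouse 25–30° C. 1–2 leaf: diluted emulsion onto water surface, preset dose. Visual score, 3 wk.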

[15] = system: Setaria viridis; assay: Test Example 4: herbicidal effect by soil treatment (symbol G); settings: 320 g/ha
Outline: as §1

[16] = system: Echinochloa crus-galli var. crus-galli; assay: Test Example 5: herbicidal effect by foliage application, plastic box (symbol H); settings: 320 g/ha, 3 weeks after application
Outline: as §3

[17] = system: rice plant; assay: Test Example 5: effect on crop by foliage application, plastic box (symbol b); settings: 320 g/ha, 3 weeks after application
Outline: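 In a plastic box 7 cm deep filled with sterilized diluvial soil, seeds of crops and weeds such as Digitaria ciliaris, Avena fatua and Amaranthus retroflexus are sown in spots and covered with about 1.5 cm of soil before greenhouse growth at 25–30° C.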

| SMILES | R: Veronica persica, herbicidal effect grade [1] | e: wheat, effect grade on crop [2] | b: directly sowed rice plant, effect grade on crop [3] | I: Avena fatua, herbicidal effect grade [4] | P: Stellaria media, herbicidal effect grade [5] | L: Apera spica-venti, herbicidal effect grade [6] | M: Abutilon theophrasti, herbicidal effect grade [7] | O: Chenopodium album, herbicidal effect (criteria 0-5) [8] | d: soybean, effect grade on crop [9] | J: Alopecurus myosuroides, herbicidal effect grade [10] | F: Digitaria ciliaris, herbicidal effect (criteria 0-5) [11] | Herbicidal effect grade, B: Scirpus juncoides [12] | J: Alopecurus myosuroides, herbicidal effect (criteria 0-5) [13] | Herbicidal effect grade, C: Monochoria vaginalis [14] | G: Setaria viridis, herbicidal effect grade [15] | H: Echinochloa crus-galli var. crus-galli, herbicidal effect (criteria 0-5) [16] | b: directly sowed rice plant, effect on crop (criteria 0-5) [17] |
| --- | --- | --- | --- | --- | --- | --- | --- | --- | --- | --- | --- | --- | --- | --- | --- | --- | --- |
| CC(CC1CC(O)=C(c2c(C)cc(C)cc2C)C1=O)=NOCC(C)Cl (stereo not drawn) [1-121] | 0 (Herbicidal ratio of 5% or lower (almost no effect)) | 0 (Herbicidal ratio of 5% or lower (almost no effect)) | 5 (Herbicidal ratio of 90% or more (almost completely withered)) | 1 (Herbicidal ratio of 5% or higher and lower than 20%) | 0 (Herbicidal ratio of 5% or lower (almost no effect)) | 5 (Herbicidal ratio of 90% or more (almost completely withered)) | 0 (Herbicidal ratio of 5% or lower (almost no effect)) | 3 (Herbicidal ratio of 40% or higher and lower than 70%) | 0 (Herbicidal ratio of 5% or lower (almost no effect)) | 5 (Herbicidal ratio of 90% or more (almost completely withered)) | 5 (Herbicidal ratio of 90% or more (almost completely withered)) | 5 (Herbicidal ratio of 90% or more (almost completely withered)) | 5 (Herbicidal ratio of 90% or more (almost completely withered)) | 1 (Herbicidal ratio of 5% or higher and lower than 20%) | 5 (Herbicidal ratio of 90% or more (almost completely withered)) | 5 (Herbicidal ratio of 90% or more (almost completely withered)) | 5 (Herbicidal ratio of 90% or more (almost completely withered)) |
| CC(CC1CC(O)=C(c2c(C)cc(C)cc2C)C1=O)=NOCC(N)=O (stereo not drawn) [1-124] | 0 (Herbicidal ratio of 5% or lower (almost no effect)) | 0 (Herbicidal ratio of 5% or lower (almost no effect)) | 1 (Herbicidal ratio of 5% or higher and lower than 20%) | 0 (Herbicidal ratio of 5% or lower (almost no effect)) | 0 (Herbicidal ratio of 5% or lower (almost no effect)) | 0 (Herbicidal ratio of 5% or lower (almost no effect)) | 0 (Herbicidal ratio of 5% or lower (almost no effect)) | 3 (Herbicidal ratio of 40% or higher and lower than 70%) | 0 (Herbicidal ratio of 5% or lower (almost no effect)) | 2 (Herbicidal ratio of 20% or higher and lower than 40%) | 0 (Herbicidal ratio of 5% or lower (almost no effect)) | 0 (Herbicidal ratio of 5% or lower (almost no effect)) | 3 (Herbicidal ratio of 40% or higher and lower than 70%) | 0 (Herbicidal ratio of 5% or lower (almost no effect)) | 3 (Herbicidal ratio of 40% or higher and lower than 70%) | 5 (Herbicidal ratio of 90% or more (almost completely withered)) | 3 (Herbicidal ratio of 40% or higher and lower than 70%) |
| CC(CC1CC(O)=C(c2c(C)cc(C)cc2C)C1=O)=NOCC[S+](C)[O-] (stereo not drawn) [1-125] | 0 (Herbicidal ratio of 5% or lower (almost no effect)) | 3 (Herbicidal ratio of 40% or higher and lower than 70%) | 5 (Herbicidal ratio of 90% or more (almost completely withered)) | 3 (Herbicidal ratio of 40% or higher and lower than 70%) | 0 (Herbicidal ratio of 5% or lower (almost no effect)) | 5 (Herbicidal ratio of 90% or more (almost completely withered)) | 0 (Herbicidal ratio of 5% or lower (almost no effect)) | 1 (Herbicidal ratio of 5% or higher and lower than 20%) | 0 (Herbicidal ratio of 5% or lower (almost no effect)) | 0 (Herbicidal ratio of 5% or lower (almost no effect)) | 5 (Herbicidal ratio of 90% or more (almost completely withered)) | 0 (Herbicidal ratio of 5% or lower (almost no effect)) | 5 (Herbicidal ratio of 90% or more (almost completely withered)) | 0 (Herbicidal ratio of 5% or lower (almost no effect)) | 5 (Herbicidal ratio of 90% or more (almost completely withered)) | 5 (Herbicidal ratio of 90% or more (almost completely withered)) | 5 (Herbicidal ratio of 90% or more (almost completely withered)) |
